From patent US20250353852A1, “COMPOUNDS AND COMPOSITIONS THAT INHIBIT PIKFYVE” (Kineta, Inc., priority 2021, published 2025)

These compounds were tested against full-length human PIKFYVE (Homo sapiens (Human), UniProt Q9Y2I7, L932S/Q1183K/Q995L/S1033A/S696N/T998S) (assay: PIKfyve biochemical assay (ADP-Glo Kinase assay, Carna Biosciences)). Conditions: class symbols.
Chain of full-length human PIKFYVE (Q9Y2I7 whole entry S696N/L932S/Q995L/T998S/S1033A/Q1183K, the tested form may be a part): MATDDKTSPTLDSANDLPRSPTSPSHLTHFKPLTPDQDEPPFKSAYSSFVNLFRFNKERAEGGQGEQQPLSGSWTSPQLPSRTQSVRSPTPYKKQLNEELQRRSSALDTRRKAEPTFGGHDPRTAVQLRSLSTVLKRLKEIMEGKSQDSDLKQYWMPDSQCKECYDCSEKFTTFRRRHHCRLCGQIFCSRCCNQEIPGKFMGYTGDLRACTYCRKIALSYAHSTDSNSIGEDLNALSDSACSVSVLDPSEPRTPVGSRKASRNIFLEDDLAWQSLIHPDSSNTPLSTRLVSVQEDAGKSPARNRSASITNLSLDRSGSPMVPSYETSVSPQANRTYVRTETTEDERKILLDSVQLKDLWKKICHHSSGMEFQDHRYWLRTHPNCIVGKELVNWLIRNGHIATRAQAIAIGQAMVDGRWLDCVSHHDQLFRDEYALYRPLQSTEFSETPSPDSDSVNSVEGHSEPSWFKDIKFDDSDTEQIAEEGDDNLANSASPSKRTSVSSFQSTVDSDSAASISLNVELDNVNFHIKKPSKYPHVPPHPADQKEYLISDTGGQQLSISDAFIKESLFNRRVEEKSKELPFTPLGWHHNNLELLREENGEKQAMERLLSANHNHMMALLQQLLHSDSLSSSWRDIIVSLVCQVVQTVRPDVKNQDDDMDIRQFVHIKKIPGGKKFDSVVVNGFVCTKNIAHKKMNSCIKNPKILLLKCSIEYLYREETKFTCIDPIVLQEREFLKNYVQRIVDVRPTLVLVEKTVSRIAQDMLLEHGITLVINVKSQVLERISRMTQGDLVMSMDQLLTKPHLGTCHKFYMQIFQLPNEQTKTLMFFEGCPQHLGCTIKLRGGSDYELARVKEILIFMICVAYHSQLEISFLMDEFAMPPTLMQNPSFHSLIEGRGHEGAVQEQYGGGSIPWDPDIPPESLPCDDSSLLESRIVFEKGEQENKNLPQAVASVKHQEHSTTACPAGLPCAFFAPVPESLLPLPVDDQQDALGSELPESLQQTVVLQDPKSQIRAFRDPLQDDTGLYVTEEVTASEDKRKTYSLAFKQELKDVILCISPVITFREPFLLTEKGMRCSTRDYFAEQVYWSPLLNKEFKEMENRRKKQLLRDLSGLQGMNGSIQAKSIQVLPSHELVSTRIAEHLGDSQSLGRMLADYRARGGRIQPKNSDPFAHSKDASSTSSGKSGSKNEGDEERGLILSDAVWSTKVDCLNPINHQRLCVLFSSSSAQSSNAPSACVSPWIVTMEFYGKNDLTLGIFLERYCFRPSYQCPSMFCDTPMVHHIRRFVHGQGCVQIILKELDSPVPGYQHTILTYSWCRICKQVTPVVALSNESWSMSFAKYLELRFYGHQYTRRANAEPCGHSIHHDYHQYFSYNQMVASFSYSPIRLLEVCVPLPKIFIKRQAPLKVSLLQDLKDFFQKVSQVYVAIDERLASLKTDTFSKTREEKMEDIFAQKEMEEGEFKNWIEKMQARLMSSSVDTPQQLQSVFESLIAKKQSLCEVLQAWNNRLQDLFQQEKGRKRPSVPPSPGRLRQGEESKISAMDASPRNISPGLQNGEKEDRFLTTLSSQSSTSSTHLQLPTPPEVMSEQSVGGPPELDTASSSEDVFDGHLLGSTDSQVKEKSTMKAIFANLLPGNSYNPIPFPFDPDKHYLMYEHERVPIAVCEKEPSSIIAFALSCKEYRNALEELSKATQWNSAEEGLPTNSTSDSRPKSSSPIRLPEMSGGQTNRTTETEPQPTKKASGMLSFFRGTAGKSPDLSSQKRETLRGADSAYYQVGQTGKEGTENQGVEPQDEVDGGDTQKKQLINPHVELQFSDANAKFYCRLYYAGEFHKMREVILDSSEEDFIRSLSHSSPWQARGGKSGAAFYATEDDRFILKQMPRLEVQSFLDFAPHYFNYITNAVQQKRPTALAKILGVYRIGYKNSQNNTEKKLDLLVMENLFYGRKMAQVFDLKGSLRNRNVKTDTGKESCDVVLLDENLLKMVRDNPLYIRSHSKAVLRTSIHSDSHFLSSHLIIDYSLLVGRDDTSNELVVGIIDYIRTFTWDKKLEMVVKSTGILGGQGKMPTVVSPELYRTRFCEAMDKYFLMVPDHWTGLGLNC
Excerpt: PIKfyve Biochemical Assay. The biochemical […] inhibition assays were run by Carna Biosciences according to proprietary methodology based on the Promega […] Kinase assay. […] NP_055855.2] was expressed as N-terminal GST-fusion protein (265 kDa) using baculovirus expression system. GST-PIKFYVE was purified by using glutathione sepharose chromatography and used in an ADP-GloTM Kinase assay (Promega). Reactions were set up by adding the test compound solution, substrate solution, ATP solution and kinase solution, each at 4× final concentrations. Reactions were prepared with assay buffer (50 mM MOPS, 1 mM DTT, pH7.2), mixed, and incubated in black 384 well polystyrene plates for 1 hour at room temperature. ADP-Glo^TM reagent was then added for 40 minutes, followed by kinase detection reagent for an additional 40 minutes. The kinase activity was evaluated by detecting relative light units on a luminescence plate reader. […] IC50 values were calculated from concentration vs % inhibition curves by fitting to a four-parameter logistic curve. […] The biochemical […] inhibition assays were run by Carna Biosciences according to proprietary methodology based on the Promega ADP-GloTM Kinase assay. […] GST-PIKFYVE was purified by using glutathione sepharose chromatography and used in an ADP-GIoTM Kinase assay (Promega). Reactions were set up by adding the test compound solution, substrate solution, ATP solution and kinase solution, each at 4× final concentrations. Reactions were prepared with assay buffer (50 mM MOPS, 1 mM DTT, pH7.2), mixed, and incubated in black 384 well polystyrene plates for 1 hour at room temperature. ADP-GIoTM reagent was then added for 40 minutes, followed by kinase detection reagent for an additional 40 minutes. The kinase activity was evaluated by detecting relative light units on a luminescence plate reader. […] IC50 values were calculated from concentration vs % inhibition curves by fitting to a four-parameter logistic curve. […] The same compounds were also tested in both FAB1 and PIKFYVE TDP-43 yeast models.
Work on `Oc1cc(-c2cncnc2)nn1-c1cc(N2CCOCC2)n2nc(-c3ccncc3)cc2n1` [Compound 44, 1-(7-morpholino-2-(pyridin-4-yl)pyrazolo[1,5-a]pyrimidin-5-yl)-3-(pyrimidin-5-yl)-1H-pyrazol-5-ol] yielded an IC50 of 100 to 1000 nM. `O=c1c(-c2ccccc2)ccnn1-c1cc(N2CCOCC2)n2nc(-c3ccncc3)cc2n1` [Compound 5, 2-(7-morpholino-2-(pyridin-4-yl)pyrazolo[1,5-a]pyrimidin-5-yl)-4-phenylpyridazin-3(2H)-one] was tested, and the IC50 was 100 to 1000 nM. With `c1ccc(C2CC(c3cc(N4CCOCC4)n4nc(-c5ccncc5)cc4n3)CN2)cc1` (stereo not drawn) [Compound 112, 4-(5-(5-phenylpyrrolidin-3-yl)-2-(pyridin-4-yl)pyrazolo[1,5-a]pyrimidin-7-yl)morpholine] the IC50 was 1000 to 10000 nM. In the case of `CC(C)c1cc(O)n(-c2cc(N3CCOCC3)n3nc(-c4ccncc4)cc3n2)n1` [Compound 54, 3-isopropyl-1-(7-morpholino-2-(pyridin-4-yl)pyrazolo[1,5-a]pyrimidin-5-yl)-1H-pyrazol-5-ol], the IC50 is reported as 100 to 1000 nM. Work on `O=C(/C=C/c1ccccc1)c1cc(N2CCOCC2)n2nc(-c3ccncc3)cc2n1` [Compound 114, 1-(7-morpholino-2-(pyridin-4-yl)pyrazolo[1,5-a]pyrimidin-5-yl)-3-phenylprop-2-en-1-one] yielded an IC50 of 1000 to 10000 nM. For “4-(5-(3-(3-fluorophenyl)-1H-pyrazol-1-yl)-2-(pyridin-4-yl)pyrazolo[1,5-a]pyrimidin-7-yl)morpholine [Compound 64]”, the IC50 was 10 to 100 nM. Compound `c1ccc(-n2ccc(-c3cc(N4CCOCC4)n4nc(-c5ccncc5)cc4n3)n2)cc1` [Compound 14, 4-(5-(1-phenyl-1H-pyrazol-3-yl)-2-(pyridin-4-yl)pyrazolo[1,5-a]pyrimidin-7-yl)morpholine] has an IC50 of 10 to 100 nM. For `CN1CCC(c2cc(O)n(-c3cc(N4CCOCC4)n4nc(-c5ccncc5)cc4n3)n2)CC1` [Compound 56, 3-(1-methylpiperidin-4-yl)-1-(7-morpholino-2-(pyridin-4-yl)pyrazolo[1,5-a]pyrimidin-5-yl)-1H-pyrazol-5-ol], the IC50 was 100 to 1000 nM. `O=C(CCCc1cc(N2CCOCC2)n2nc(-c3ccncc3)cc2n1)c1ccccc1` [Compound 113, 4-(7-morpholino-2-(pyridin-4-yl)pyrazolo[1,5-a]pyrimidin-5-yl)-1-phenylbutan-1-one] gave an IC50 of 100 to 1000 nM. With `c1cncc(-n2nccc2-c2cc(N3CCOCC3)n3nc(-c4ccncc4)cc3n2)c1` [Compound 12, 4-(5-(1-(pyridin-3-yl)-1H-pyrazol-5-yl)-2-(pyridin-4-yl)pyrazolo[1,5-a]pyrimidin-7-yl)morpholine] the IC50 was 1000 to 10000 nM. `c1ccc(-n2nccc2-c2cc(N3CCOCC3)n3nc(-c4ccncc4)cc3n2)cc1` [Compound 146, 4-(5-(1-phenyl-1H-pyrazol-5-yl)-2-(pyridin-4-yl)pyrazolo[1,5-a]pyrimidin-7-yl)morpholine] was tested, and the IC50 was 100 to 1000 nM. `c1ccc(CC2CNCCN2c2cc(N3CCOCC3)n3nc(-c4ccncc4)cc3n2)cc1` (stereo not drawn) [Compound 117, 4-(5-(2-benzylpiperazin-1-yl)-2-(pyridin-4-yl)pyrazolo[1,5-a]pyrimidin-7-yl)morpholine] gave an IC50 of 1000 to 10000 nM. For `Fc1cccc(Oc2ncccc2-c2cc(N3CCOCC3)n3nc(-c4ccncc4)cc3n2)c1` [Compound 137, 4-(5-(2-(3-fluorophenoxy)pyridin-3-yl)-2-(pyridin-4-yl)pyrazolo[1,5-a]pyrimidin-7-yl)morpholine], the IC50 was 100 to 1000 nM. For `CN1CCCC(c2ccn(-c3cc(N4CCOCC4)n4nc(-c5ccncc5)cc4n3)n2)C1` (stereo not drawn) [Compound 68, 4-(5-(3-(1-methylpiperidin-3-yl)-1H-pyrazol-1-yl)-2-(pyridin-4-yl)pyrazolo[1,5-a]pyrimidin-7-yl)morpholine], the IC50 was 100 to 1000 nM. Compound `FC1(F)CNCC(c2ccn(-c3cc(N4CCOCC4)n4nc(-c5ccncc5)cc4n3)n2)C1` (stereo not drawn) [Compound 74, 4-(5-(3-(5,5-difluoropiperidin-3-yl)-1H-pyrazol-1-yl)-2-(pyridin-4-yl)pyrazolo[1,5-a]pyrimidin-7-yl)morpholine] has an IC50 of 1000 to 10000 nM. In the case of `c1cncc(-n2ccc(-c3cc(N4CCOCC4)n4nc(-c5ccncc5)cc4n3)n2)c1` [Compound 13, 4-(5-(1-(pyridin-3-yl)-1H-pyrazol-3-yl)-2-(pyridin-4-yl)pyrazolo[1,5-a]pyrimidin-7-yl)morpholine], the IC50 is reported as 10 to 100 nM. In the case of `CN1CC(=O)N(c2cc(N3CCOCC3)n3nc(-c4ccncc4)cc3n2)CC1c1ccccc1` (stereo not drawn) [Compound 136, 4-methyl-1-(7-morpholino-2-(pyridin-4-yl)pyrazolo[1,5-a]pyrimidin-5-yl)-5-phenylpiperazin-2-one], the IC50 is reported as 1000 to 10000 nM. For `c1ccc(C2CCN(c3cc(N4CCOCC4)n4nc(-c5ccncc5)cc4n3)C2)cc1` (stereo not drawn) [Compound 33, 4-(5-(3-phenylpyrrolidin-1-yl)-2-(pyridin-4-yl)pyrazolo[1,5-a]pyrimidin-7-yl)morpholine], the IC50 was 1000 to 10000 nM. Work on `c1nn(-c2cc(N3CCOCC3)n3nc(C4CCCO4)cc3n2)c2c1COCC2` (stereo not drawn) [Compound 100, 1-(7-morpholino-2-(tetrahydrofuran-2-yl)pyrazolo[1,5-a]pyrimidin-5-yl)-1,4,6,7-tetrahydropyrano[4,3-c]pyrazole] yielded an IC50 greater than 10000 nM. Compound `c1cc(-c2cc3nc(-n4ccc(-c5ccnnc5)n4)cc(N4CCOCC4)n3n2)ccn1` [Compound 69, 4-(5-(3-(pyridazin-4-yl)-1H-pyrazol-1-yl)-2-(pyridin-4-yl)pyrazolo[1,5-a]pyrimidin-7-yl)morpholine] has an IC50 of 100 to 1000 nM. Work on `c1cc(-c2cc3nc(-n4ncc5c4CCCC5)cc(N4CCOCC4)n3n2)ccn1` [Compound 86, 4-(2-(pyridin-4-yl)-5-(4,5,6,7-tetrahydro-1H-indazol-1-yl)pyrazolo[1,5-a]pyrimidin-7-yl)morpholine] yielded an IC50 of 1000 to 10000 nM. With `O=C1C(c2ccccc2)CCN1c1cc(N2CCOCC2)n2nc(-c3ccncc3)cc2n1` (stereo not drawn) [Compound 23, 1-(7-morpholino-2-(pyridin-4-yl)pyrazolo[1,5-a]pyrimidin-5-yl)-3-phenylpyrrolidin-2-one] the IC50 was 100 to 1000 nM. `Oc1cc(-c2cc(N3CCOCC3)n3nc(-c4ccncc4)cc3n2)nn1-c1ccccc1` [Compound 57, 3-(7-morpholino-2-(pyridin-4-yl)pyrazolo[1,5-a]pyrimidin-5-yl)-1-phenyl-1H-pyrazol-5-ol] was tested, and the IC50 was 10 to 100 nM. `COc1cnn(-c2cc(N3CCOCC3)n3nc(-c4ccncc4)cc3n2)c(=O)c1Br` [Compound 7, 4-bromo-5-methoxy-2-(7-morpholino-2-(pyridin-4-yl)pyrazolo[1,5-a]pyrimidin-5-yl)pyridazin-3(2H)-one] showed an IC50 of 1000 to 10000 nM. `OCC(O)c1cc2nc(-n3ccc(-c4ccccc4)n3)cc(N3CCOCC3)n2n1` (stereo not drawn) [Compound 144, 1-(7-morpholino-5-(3-phenyl-1H-pyrazol-1-yl)pyrazolo[1,5-a]pyrimidin-2-yl)ethane-1,2-diol] showed an IC50 of 10 to 100 nM. Compound `c1ccc(-c2ccn(-c3cc(N4CCOCC4)n4nc(C5CCOCC5)cc4n3)n2)cc1` [Compound 98, 4-(5-(3-phenyl-1H-pyrazol-1-yl)-2-(tetrahydro-2H-pyran-4-yl)pyrazolo[1,5-a]pyrimidin-7-yl)morpholine] has an IC50 of 100 to 1000 nM. For `O=C(/C=C/c1cc(N2CCOCC2)n2nc(-c3ccncc3)cc2n1)c1ccccc1` [Compound 109, (E)-3-(7-morpholino-2-(pyridin-4-yl)pyrazolo[1,5-a]pyrimidin-5-yl)-1-phenylprop-2-en-1-one], the IC50 was 1000 to 10000 nM. `CN1CCN(c2cc(N3CCOCC3)n3nc(-c4ccncc4)cc3n2)C(Cc2ccccc2)C1` (stereo not drawn) [Compound 118, 4-(5-(2-benzyl-4-methylpiperazin-1-yl)-2-(pyridin-4-yl)pyrazolo[1,5-a]pyrimidin-7-yl)morpholine] gave an IC50 of 1000 to 10000 nM. In the case of `O=C1CC(c2ccccc2)CN1c1cc(N2CCOCC2)n2nc(-c3ccncc3)cc2n1` (stereo not drawn) [Compound 25, 1-(7-morpholino-2-(pyridin-4-yl)pyrazolo[1,5-a]pyrimidin-5-yl)-4-phenylpyrrolidin-2-one], the IC50 is reported as 1000 to 10000 nM. `Oc1cc(C2CCOCC2)nn1-c1cc(N2CCOCC2)n2nc(-c3ccncc3)cc2n1` [Compound 50, 1-(7-morpholino-2-(pyridin-4-yl)pyrazolo[1,5-a]pyrimidin-5-yl)-3-(tetrahydro-2H-pyran-4-yl)-1H-pyrazol-5-ol] gave an IC50 of 100 to 1000 nM. Work on `c1ccc(CN2CCCC2c2cc(N3CCOCC3)n3nc(-c4ccncc4)cc3n2)cc1` (stereo not drawn) [Compound 124, 4-(5-(1-benzylpyrrolidin-2-yl)-2-(pyridin-4-yl)pyrazolo[1,5-a]pyrimidin-7-yl)morpholine] yielded an IC50 of 1000 to 10000 nM. `c1ccc(-c2nnc(-c3cc(N4CCOCC4)n4nc(-c5ccncc5)cc4n3)o2)cc1` [Compound 130, 4-(5-(5-phenyl-1,3,4-oxadiazol-2-yl)-2-(pyridin-4-yl)pyrazolo[1,5-a]pyrimidin-7-yl)morpholine] gave an IC50 of 1000 to 10000 nM.

Same assay, conditions: numeric values
With `Fc1cccc(-c2ccnn2-c2cc(N3CCOCC3)n3nc(-c4ccncc4)cc3n2)c1` [Compound 147, 4-(5-(5-(3-fluorophenyl)-1H-pyrazol-1-yl)-2-(pyridin-4-yl)pyrazolo[1,5-a]pyrimidin-7-yl)morpholine] the IC50 was 1570 nM.
